In patent US20110212142A1, “CURCUMINOIDS AND ITS METABOLITES FOR THE APPLICATION IN OCULAR DISEASES” (LAILA PHARMACEUTICALS PVT.LTD., priority 2008, published 2011):
Read-outs that look alike come from different tables or passages of the source.

Experiment: Particle size distribution study (Malvern particle size analyzer, laser diffraction)
Assay type: physicochemical
Experimental: The study was conducted using Malvern particle size analyzer. The map of scattering intensity versus angle is the primary source of information used to calculate the particle size. The scattering of particles is accurately predicted by the Mie scattering model allowing accurate sizing across the widest possible dynamic range. During the laser diffraction measurement, particles are passed through a focused laser beam. These particles scatter light at an angle that is inversely proportional to their size. The angular intensity of the scattered light is then measured by a series of photosensitive detectors. The advantage of this study is that there is no sample preparation involved.
This is a clear indication that the process of nanoemulsification followed has effectively transformed the large sized particles to nanosized coated curcuminoid particles. Additional peaks can be observed which is contributed by the high molecular weight excipients used to prepare the formulation.

particle size: 373 nm
particle size (listed as unformulated curcumin): 374 nm
Structure (SMILES): COc1cc(/C=C/C(=O)CC(=O)/C=C/c2ccc(O)c(OC)c2)ccc1O [unformulated curcumin 98%, curcumin]
